We go through 37 compounds from patent US11236055B2 (Venenum Biodesign, LLC, priority 2016, dated 2022).

The target in experiment [1] is T1, human TGR5 receptor (Homo sapiens, UniProt Q8TDU6).
T1 construct: host or cells: CHO-K1 (hTGR5-CHO cells)
T1 sequence (Q8TDU6 1-330): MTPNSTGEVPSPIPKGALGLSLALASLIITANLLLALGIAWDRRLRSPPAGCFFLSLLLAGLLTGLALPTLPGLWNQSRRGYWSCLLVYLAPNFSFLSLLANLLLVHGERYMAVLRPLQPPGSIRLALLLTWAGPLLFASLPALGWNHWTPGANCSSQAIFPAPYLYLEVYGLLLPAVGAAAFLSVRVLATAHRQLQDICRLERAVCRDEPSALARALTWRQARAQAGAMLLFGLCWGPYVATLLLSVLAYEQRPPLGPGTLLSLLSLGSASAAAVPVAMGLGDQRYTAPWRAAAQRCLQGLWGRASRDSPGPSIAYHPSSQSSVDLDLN
Kind of experiment: Human TGR5 cAMP production assay. The format is cell-based. The note with it: human TGR5, luminescent cAMP assay; coded A-D; read-out: Human TGR5 Lum. cAMP Activity (EC50). The method in brief: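 CHO-K1 cells stably expressing human TGR5, with IBMX and cAMP antibody, were exposed to half-log serially diluted compound for 1 h at room temperature. cAMP measured by enzyme-fragment complementation luminescence (XS+ kit) after overnight incubation; EC50 values reported.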
(In general: Cyclic AMP is a second messenger, typically raised through Gs and lowered through Gi signalling.)

The target of experiment [2] is T2, mouse TGR5 receptor (Mus musculus, UniProt Q80SS6).
T2 construct: expressed in transfected cells; host or cells: HEK293-EBNA (293 c18, ATCC CRL10852), Hygromycin B selection
T2 sequence (Q80SS6 1-329): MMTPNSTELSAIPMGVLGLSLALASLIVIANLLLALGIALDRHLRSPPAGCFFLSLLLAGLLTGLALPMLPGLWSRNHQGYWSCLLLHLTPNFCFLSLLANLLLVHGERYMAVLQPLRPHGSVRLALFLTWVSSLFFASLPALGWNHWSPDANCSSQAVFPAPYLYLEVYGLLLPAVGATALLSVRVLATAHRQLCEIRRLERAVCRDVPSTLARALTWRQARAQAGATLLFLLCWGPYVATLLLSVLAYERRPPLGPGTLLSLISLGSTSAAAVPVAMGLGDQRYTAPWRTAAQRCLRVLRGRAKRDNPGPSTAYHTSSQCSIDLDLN
Kind of experiment: Mouse TGR5 cAMP production assay (luminescent, DiscoveRx cAMP XS+). Particulars: HEK293-EBNA cells overexpressing mouse TGR5, luminescent cAMP XS+; coded A-D; read-out: Mouse TGR5 Lum. cAMP Activity (EC50). The format is cell-based. The source says:
Mouse TGR5 cAMP Production Assay
We evaluated compounds of the present invention for their ability to induce cAMP production in HEK-EBNA cells overexpressing the mouse TGR5 receptor. Human embryonic kidney cells (HEK293-EBNA) stably expressing mouse TGR5 receptor were established using the following procedure. Specifically, a commercially-obtained gene encoding mouse TGR5 (accession number BC116914) from Thermo Scientific (Waltham, Mass.) was cloned into an episomal expression vector. The resulting expression plasmid was then transfected into 293 c18 (ATCC® CRL10852™) cells, which express the Epstein-Barr virus nuclear antigen EBNA1 and can support the replication of episomal vectors. Selection for the plasmid was maintained with Hygromycin B. Cells were cultured and maintained in DMEM (Sigma; cat #6429) supplemented with 10% Fetal Bovine Serum, 1% penicillin/streptomycin, 2 mM L-alanine L-glutamine (GlutaMax), and 250 μg/mL Hygromycin.
Two cAMP production assays were developed.
1. Luminescent cAMP Production Assay
In this first cAMP production assay, the cAMP production was measured using DiscoveRx's cAMP XS+ kit following the manufacturer's recommended protocol.
Briefly, HEK293-EBNA cells stably overexpressing mouse TGR5 were harvested using non-enzymatic cell dissociation buffer (Sigma-Aldrich, St. Louis, Mo.), spun down, then resuspended in serum-free DMEM with 500 μM IBMX at a density of 1.25×10^6 cells/mL. 500 μL of cAMP antibody solution was added to […] of cell suspension and incubated at room temperature for 20 min.
Test compounds were serially diluted (half-log dilutions) in DMSO and then further diluted 1:50 in PBS, 10 mM HEPES buffer. 2 μL of serially diluted compound was added to a 384-well low volume plate (Greiner cat #784075) and centrifuged briefly. 2 μL of the cell/cAMP antibody mixture was then added to each compound-containing well and allowed to incubate at room temperature for one (1) hour. Following incubation, the XS+ kits' ED/Lysis/CL Substrate Working Solution was prepared following the manufacturer's recommended protocol and 4 μL was added to each well of the plate. The plate was then incubated for one (1) hour at room temperature. Following incubation, 4 μL of (Enzyme Acceptor) EA reagent was added to the plate and allowed to incubate overnight at room temperature. Luminescent signal was then detected using the Viewlux instrument (Perkin-Elmer, Waltham, Mass.).
In Table 33, EC50 values for both human and mouse cells were determined according to the TGR5 cAMP assays described above.

Where only a bound is given, the exact number is not on record here.

Turning to `C[C@H](NS(=O)(=O)c1ccccc1C(F)(F)F)c1cccc(-c2ccncc2Cl)c1` [Compound 2BT], the EC50 in experiment [1] is less than 0.1 µM; in experiment [2] it was 0.1 to 0.999 µM.

`O=[N+]([O-])c1ccccc1S(=O)(=O)NCc1cccc(-c2ccncc2)c1` [Compound 2AO]: the concentration for a half-maximal effect (EC50) in experiment [1] and in experiment [2] was 1 to 30 µM in each case.

Consider `COCCOc1cnccc1-c1cccc(C(C)(C)NS(=O)(=O)c2cccc(C(F)(F)F)c2)c1` [Compound 8, N-(2-(3-(3-(2-methoxyethoxy)pyridin-4-yl)phenyl)propan-2-yl)-3-(trifluoromethyl)benzenesulfonamide], for which the concentration for a half-maximal effect (EC50) is 0.1 to 0.999 µM in experiment [1] and 1 to 30 µM in experiment [2].

Regarding `COc1cnccc1-c1cccc(C(C)(C)NS(=O)(=O)c2cccc(C)c2)c1` [Compound 2AZ], the concentration for a half-maximal effect (EC50) in experiment [1] and in experiment [2] was 0.1 to 0.999 µM each time.

With `Cc1noc(C)c1-c1cccc(CNS(=O)(=O)c2ccccc2C(F)(F)F)c1` [Compound 2AC], the 50% effective concentration (EC50) in experiment [1] and in experiment [2] was 1 to 30 µM each time.

Regarding `COc1cnccc1-c1cccc([C@H](C)NS(=O)(=O)c2cccc(C(F)(F)F)c2)c1` [Compound 1AZ], the EC50 was less than 0.1 µM in experiment [1] and 1 to 30 µM in experiment [2].

As to `CC(C)(NS(=O)(=O)c1cccc(C(F)(F)F)c1)c1cccc(-c2ccnc(C(F)(F)F)c2)c1` [Compound 1AH], the concentration giving a half-maximal response (EC50) in experiment [1] was 1 to 30 µM; in experiment [2] it was greater than 30 µM.

Take `O=S(=O)(NCc1cccc(-c2ccncc2)c1)c1ccccc1Cl` [Compound 2AR]: the results for the EC50 in experiment [1] and in experiment [2] were 1 to 30 µM and greater than 30 µM, respectively.

In the case of `O=S(=O)(NCc1cccc(-c2ccncc2)c1)c1cccc(F)c1` [Compound 2AK], the EC50 in experiment [1] was 1 to 30 µM; in experiment [2] it was greater than 30 µM.

For the compound `Nc1cnccc1-c1cccc(CNS(=O)(=O)c2cccc(C(F)(F)F)c2)c1` [Compound 1BG], the 50% effective concentration (EC50) lay within 0.1 to 0.999 µM in experiment [1] and 1 to 30 µM in experiment [2].

In the case of `COc1cnccc1-c1cccc(CNS(=O)(=O)c2cccc(C(F)(F)F)c2)n1` [Compound 1BQ], the EC50 in experiment [1] and in experiment [2] was 1 to 30 µM throughout.

Consider `O=S(=O)(NCc1ccc(F)c(-c2ccncc2Cl)c1)c1cccc(C(F)(F)F)c1` [Compound 1AT], for which the EC50 in experiment [1] and in experiment [2] was 1 to 30 µM in each case.

With `C[C@H](NS(=O)(=O)c1cccc(C(F)(F)F)c1)c1cccc(-c2ccncc2Cl)c1` [Compound 1AX], the EC50 in experiment [1] and in experiment [2] was 0.1 to 0.999 µM throughout.

As to `Cc1noc(C)c1-c1cccc(CNS(=O)(=O)c2cc(F)cc(C(F)(F)F)c2)c1` [Compound 2AG], the concentration for a half-maximal effect (EC50) in experiment [1] is 1 to 30 µM; in experiment [2], greater than 30 µM.

Take `O=S(=O)(NCc1cccc(-c2ccncc2)c1)c1ccccc1F` [Compound 2AS]: the EC50 in experiment [1] is 1 to 30 µM; in experiment [2] it was greater than 30 µM.

Take `Cc1cccc(S(=O)(=O)NCc2cccc(-c3ccncc3)c2)c1` [Compound 2AI]: the concentration giving a half-maximal response (EC50) in experiment [1] and in experiment [2] was 1 to 30 µM each time.

In the case of `COc1cnccc1-c1cccc(C(C)(C)NS(=O)(=O)c2cccc(C(F)(F)F)c2)c1` [Compound 1AI], the EC50 in experiment [1] was less than 0.1 µM; in experiment [2], 0.1 to 0.999 µM.

For `O=S(=O)(NCc1cccc(-c2ccncc2)c1)c1ccccc1C(F)(F)F` [Compound 2AM], the 50% effective concentration (EC50) in experiment [1] and in experiment [2] was 1 to 30 µM each time.

As to `O=S(=O)(NCc1ccc(Cl)c(-c2ccncc2)c1)c1cccc(C(F)(F)F)c1` [Compound 1BU], the values for the concentration for a half-maximal effect (EC50) in experiment [1] and in experiment [2] were 1 to 30 µM and greater than 30 µM, respectively.

In the case of `O=S(=O)(NCc1cc(-c2ccncc2Cl)ccc1F)c1cccc(C(F)(F)F)c1` [Compound 1AV], the EC50 in experiment [1] and in experiment [2] was 1 to 30 µM throughout.

Regarding `O=S(=O)(NCc1cccc(-c2ccncc2)c1)c1cccc(Br)c1` [Compound 2AQ], the half-maximal effective concentration (EC50) in experiment [1] was 0.1 to 0.999 µM; in experiment [2], greater than 30 µM.

On to `Cc1cc(-c2cccc(CNS(=O)(=O)c3cccc(C(F)(F)F)c3)c2)ncn1` [Compound 1BI], for which the concentration giving a half-maximal response (EC50) is 1 to 30 µM in experiment [1] and greater than 30 µM in experiment [2].

Take `COc1cnccc1-c1cccc(C(C)(C)NS(=O)(=O)c2cccc(Br)c2)c1` [Compound 2AT]: the 50% effective concentration (EC50) in experiment [1] fell in the range of 0.1 to 0.999 µM; in experiment [2], 1 to 30 µM.

In the case of `CCC(NS(=O)(=O)c1cccc(C(F)(F)F)c1)c1cccc(-c2ccncc2)c1` (centres unmarked) [Compound 1BZ], the concentration for a half-maximal effect (EC50) was 0.1 to 0.999 µM in experiment [1] and 1 to 30 µM in experiment [2].

Regarding `Cc1cnccc1-c1cccc(CNS(=O)(=O)c2cccc(C(F)(F)F)c2)c1` [Compound 1BF], the half-maximal effective concentration (EC50) in experiment [1] and in experiment [2] was 0.1 to 0.999 µM throughout.

Consider `CC(C)(NS(=O)(=O)c1cccc(C(F)(F)F)c1)c1cccc(-c2ccnc(Cl)c2)c1` [Compound 1AG], for which the 50% effective concentration (EC50) in experiment [1] was in the range of 0.1 to 0.999 µM; in experiment [2], 1 to 30 µM.

Turning to `Cc1noc(C)c1-c1cccc(CNS(=O)(=O)c2cccc(C(F)(F)F)c2)c1` [Compound 1, N-(3-(3,5-dimethylisoxazol-4-yl)benzyl)-3-(trifluoromethyl)benzenesulfonamide], the concentration for a half-maximal effect (EC50) in experiment [1] and in experiment [2] was 1 to 30 µM throughout.

Consider `O=S(=O)(NCc1cccc(-c2ccncc2Cl)c1)c1cccc(C(F)(F)F)c1` [Compound 1AQ], for which the concentration for a half-maximal effect (EC50) was 0.1 to 0.999 µM in experiment [1] and 1 to 30 µM in experiment [2].

For `C[C@H](NS(=O)(=O)c1cccc(Br)c1)c1cccc(-c2ccncc2Cl)c1` [Compound 2BR], the EC50 fell in the range of 0.1 to 0.999 µM in experiment [1] and 1 to 30 µM in experiment [2].

`O=S(=O)(NCc1cccc(-c2ccncc2F)c1)c1cccc(C(F)(F)F)c1` [Compound 1AP]: the values for the EC50 in experiment [1] and in experiment [2] were 0.1 to 0.999 µM and 1 to 30 µM, respectively.

Consider `CC(C)(NS(=O)(=O)c1cccc(C(F)(F)F)c1)c1cccc(-c2ccncc2)c1` [Compound 1AD], for which the EC50 in experiment [1] was less than 0.1 µM; in experiment [2] it was 1 to 30 µM.

Turning to `Cc1cnccc1-c1cccc([C@H](C)NS(=O)(=O)c2cccc(C(F)(F)F)c2)c1` [Compound 5AG, (S)-N-(1-(3-(3-methylpyridin-4-yl)phenyl)ethyl)-3-(trifluoromethyl)benzenesulfonamide], the EC50 was less than 0.1 µM in experiment [1] and 0.1 to 0.999 µM in experiment [2].

For the compound `O=S(=O)(NCc1cc(-c2ccncc2)ccc1F)c1cccc(C(F)(F)F)c1` [Compound 1AU], the EC50 in experiment [1] and in experiment [2] was 1 to 30 µM throughout.

Take `COc1cnccc1-c1cccc([C@H](C)NS(=O)(=O)c2ccccc2[N+](=O)[O-])c1` [Compound 2BP]: the concentration for a half-maximal effect (EC50) in experiment [1] is less than 0.1 µM; in experiment [2] it was 0.1 to 0.999 µM.

For the compound `Cc1cncc(F)c1-c1cccc(C(C)(C)NS(=O)(=O)c2cccc(C(F)(F)F)c2)c1` [Compound 1AO], the concentration giving a half-maximal response (EC50) in experiment [1] and in experiment [2] was 1 to 30 µM each time.

Turning to `Cc1cc(-c2cccc(C(C)(C)NS(=O)(=O)c3cccc(C(F)(F)F)c3)c2)ccn1` [Compound 1AK], the EC50 in experiment [1] was 0.1 to 0.999 µM; in experiment [2] it was 1 to 30 µM.

`CCc1cnccc1-c1cccc(C(C)(C)NS(=O)(=O)c2cccc(C(F)(F)F)c2)c1` [Compound 5AB, N-(2-(3-(3-ethylpyridin-4-yl)phenyl)propan-2-yl)-3-(trifluoromethyl)benzenesulfonamide]: the concentration giving a half-maximal response (EC50) in experiment [1] is less than 0.1 µM; in experiment [2], 0.1 to 0.999 µM.

By EC50 is commonly meant the concentration needed to bring the measured effect to its halfway point.
